Results reported in PMC10218498, “Exploring BenzylethoxyAryl Urea Scaffolds for Multitarget Immunomodulation Therapies” (International Journal of Molecular Sciences, 2023).
Read-outs that look alike come from different tables or passages of the source.

Assays:
Jurkat T cells = experiment: MTT cell proliferation assay, Jurkat T cells; type: cell-based; details: Homo sapiens, 48 h of treatment
Procedure: This assay allowed us to establish the corresponding IC50 values (expressed as the concentration, in μM, at which 50% of cell viability is achieved), shown in Table 1.
In 96-well plates, 5 × 10^3 (HT-29, MCF-7, A549, HMEC-1, Jurkat, and HEK-293) cells per well were incubated with serial dilutions of the tested compounds in a total volume of 100 μL of their respective growth media. The 3-(4,5-dimethylthiazol-2-yl)-2,5-diphenyltetrazolium bromide (MTT; Sigma Chemical Co.) dye reduction assay in 96-well microplates was used. After 2 days of incubation (37 °C, 5% CO2 in a humid atmosphere), 10 μL of MTT (5 mg/mL in phosphate-buffered saline, PBS) was added to each well, and the plate was incubated for a further 3 h (37 °C). After that, the supernatant was discarded and replaced by 100 µL of DMSO to dissolve formazan crystals. The absorbance was then read at 550 nm by spectrophotometry. For all concentrations of compound, cell viability was expressed as the percentage of the ratio between the mean absorbance of treated cells and the mean absorbance of untreated cells. Three independent experiments were performed, and the IC50 values (i.e., concentration half inhibiting cell proliferation) were graphically determined using GraphPad Prism 4 software.

HT-29 cells = experiment: Cancer cell viability in monoculture and co-cultures with THP-1 by flow cytometry; type: cell-based, human; details: for morphological changes of HT-29 cells: 48 h co-culture with THP-1 at (1:5); for viability at 20 µM: Homo sapiens
Procedure: We also studied the effect of the selected compounds on tumor cell proliferation in the presence of human monocytic leukemia cell line THP-1. This assay was carried out using HT-29 as the cancer cell line and different proportions of immune cells. Standard proportions for this assay were 1:5 cancer/immune cells. Additionally, we also carried out this assay using a 2:1 proportion of cancer cells as regards immune THP-1 cells. Assays were performed after 24 and 48 h of treatment, using 20 μM doses of selected compounds and BMS-8 as the reference compound.
First, to study the effect of the compounds on the cell viability in monoculture, 10^5 of cancer cell line per well were seeded and incubated for 24 h; then, the corresponding compound at 20 μM or DMSO for the positive control were added. After 24 h of incubation, cancer cells were collected with trypsin and fixed with 4% in PBS paraformaldehyde and counted by flow cytometry.
(§1) On the other hand, to study the effect of the compounds on the cell viability in co-culture with THP-1 cells, 10^5 or 2 × 10^5 of the HT-29 cells line per well were seeded and incubated for 24 h, then the medium was changed by one cell culture medium supplemented with IFN-γ (10 ng/mL; human, Invitrogen®, Waltham, MA, USA) and containing 5 × 10^5 or 105, respectively, of THP-1 per well and the corresponding compound at 20 μM or DMSO for the positive control. After 24 h/48 h of incubation, supernatants were collected to determine THP-1 living cells. Additionally, stain cancer cells were collected with trypsin. Both types of suspension cells were fixed with 4% in PBS paraformaldehyde and counted by flow cytometry.

THP-1 cells = experiment: Immune cell viability in monoculture and co-cultures with HT-29 by flow cytometry; type: cell-based, human; details: for THP-1 living cells compared to control (%), Monocult. THP-1: THP-1 monoculture, 20 μM; for THP-1 living cells compared to control (%), 1:5 HT-29/THP-1, 24 h / THP-1 living cells compared to control (%), 1:5 HT-29/THP-1, 48 h: co-culture 1:5 HT-29/THP-1, 20 μM; for THP-1 living cells compared to control (%), 2:1 HT-29/THP-1, 24 h / THP-1 living cells compared to control (%), 2:1 HT-29/THP-1, 48 h: co-culture 2:1 HT-29/THP-1, 20 μM
Procedure: From the previous study, we also determined the effect of the selected compounds on the human monocyte cells THP-1 in the described co-cultures. We also assessed the effect of the compounds on the cell viability of monocultured THP-1.
as §1

Fyn = experiment: Immunoblotting of OT-1 CTL signaling proteins: FYN; type: cell-based, mice; details: OT-1, 20 μM, 24 h
Description: We next studied the effect of our compounds on the signaling cascade downstream of the TCR. […] However, both the expression and phosphorylation of LCK were increased in response to all compounds. The effects on ZAP70 and LAT were more complex, with opposing effects on total protein expression versus phosphorylation. Thus, all compounds modulated signaling downstream of the TCR in a manner that is likely to impact T-cell activation and activity.
CD8+ cells were obtained from the inguinal, axillary, brachial, and mesenteric lymph nodes previously collected from OT-1 mice. Lymph node cells were isolated by mashing through a […] cell strainer. Cells were resuspended in IMDM cell media at a concentration of 0.3 million cells/mL. N4 ovalbumin peptide was added at a concentration of 10 nM, and cells were incubated for 48 h at 5% CO2, 37 °C. On day 2 from recollection, cells were pelleted at 1300 rpm for 5 min and washed with PBS to remove N4 peptide. The cell pellet was resuspended in fresh IMDM media in a new flask in a 0.3 million cells/mL and supplemented with IL-2 at 20 ng/mL. After incubation for a further 48 h (day 4), cells were re-seeded in fresh IMDM media at a concentration of 0.3 million cells/mL supplemented with IL-2 at 20 ng/mL. Cells were cultured for a further 48 h prior to use on day 6 in functional assays.
To study the effect of the compounds in the signaling pathway of CTLs, the compound was incubated for 24 h at 20 μM. After this time, cells were collected and washed twice in PBS and lysed in radioimmunoprecipitation assay (RIPA) lysis buffer (50 mM tris-HCl at pH 7.4, 150 mM sodium chloride, 5 mM EGTA, 0.1% SDS, 1% NP-40, and 1% deoxycholate) supplemented with a protease and phosphatase inhibitor cocktail (mini complete ULTRA Protease tablet and phosSTOP tablet from Roche, Basel, Switzerland). Lysates were clarified by high-speed centrifugation (17,000 rpm for 15 min at 4 °C). Protein concentration was measured using a Micro BCA Protein Assay (Thermo Scientific, Waltham, MA, USA), and 10 μg to 30 μg of total protein were supplemented with 2X SDS sample buffer [tris (pH 6.8), 20% glycerol, 5% SDS, b-mercaptoethanol, and bromophenol blue) and boiled at 95 °C for 5 min. […] Bound Ab was detected by incubation with anti-rabbit and anti-mouse horseradish peroxidase secondary Ab (Cell Signaling Technology) and visualized using the Bio-Rad ChemiDoc MP Imaging System.

[1] = HT-29 monoculture, 20 μM, read-out: cancer cell viability (%), Monocult. HT-29
[2] = co-culture 1:5 HT-29/THP-1, 20 μM, 24 h, read-out: cancer cell viability (%), 1:5 HT-29/THP-1, 24 h
[3] = co-culture 1:5 HT-29/THP-1, 20 μM, 48 h, read-out: cancer cell viability (%), 1:5 HT-29/THP-1, 48 h
[4] = co-culture 2:1 HT-29/THP-1, 20 μM, 24 h, read-out: cancer cell viability (%), 2:1 HT-29/THP-1, 24 h
[5] = co-culture 2:1 HT-29/THP-1, 20 μM, 48 h, read-out: cancer cell viability (%), 2:1 HT-29/THP-1, 48 h
[6] = co-culture (1:5) HT-29/THP-1, 24 h, 20 μM
[7] = co-culture (2:1) HT-29/THP-1, 24 h, 20 μM

Compound | IC50 (Jurkat T cells) [µM] | morphological changes of HT-29 cells (HT-29 cells; 20 μM) | viability at 20 µM (HT-29 cells; [1]) [%] | viability at 20 µM (HT-29 cells; [2]) [%] | viability at 20 µM (HT-29 cells; [3]) [%] | viability at 20 µM (HT-29 cells; [4]) [%] | viability at 20 µM (HT-29 cells; [5]) [%] | THP-1 living cells compared to control (%), Monocult. THP-1 (THP-1 cells) [%] | THP-1 living cells compared to control (%), 1:5 HT-29/THP-1, 24 h (THP-1 cells) [%] | THP-1 living cells compared to control (%), 1:5 HT-29/THP-1, 48 h (THP-1 cells) [%] | THP-1 living cells compared to control (%), 2:1 HT-29/THP-1, 24 h (THP-1 cells) [%] | THP-1 living cells compared to control (%), 2:1 HT-29/THP-1, 48 h (THP-1 cells) [%] | FYN protein expression (Western blot quantification) (Fyn) | inhibition of cell viability (HT-29) (HT-29 cells; [6]) [%] | inhibition of cell viability (HT-29) (HT-29 cells; [7]) [%] | cancer cell viability (%), 2:1 HT-29/THP-1, 48 h (HT-29 cells; co-culture 2:1 HT-29/THP-1, 20 μM, 48 h)
Cc1c(COc2ccc(CN3CCCCC3C(=O)O)cc2Br)cccc1-c1ccccc1 (centres unmarked) [BMS-8, reference compound] | > 100 | retained this epithelial nature, resulting in an increased and brighter cytosolic granulation | 102 ± 23 | 88 ± 3 | 102 ± 12 | 106 ± 10 | 101 ± 3 | 99 ± 2 | 94 ± 0 | 93 ± 0 | 101 ± 9 | 97 ± 2 | – | – | – | –
COc1ccc(COc2cccc(NC(=O)Nc3ccc(F)cc3)c2)cc1 [Compound 2] | > 100 | less confluent cultures with a few elongated fibroblast-like appearance cells | 89 ± 7 | 80 ± 4 | 102 ± 16 | 83 ± 5 | 95 ± 5 | 111 ± 13 | 97 ± 7 | 105 ± 4 | 90 ± 28 | 105 ± 1 | 101 | 20 | 20 | –
COc1ccc(COc2cccc(NC(=O)Nc3ccc(Br)cc3)c2)cc1 [Compound 8] | > 100 | less confluent cultures with a few elongated fibroblast-like appearance cells | 86 ± 9 | 83 ± 13 | 106 ± 8 | 95 ± 16 | 92 ± 20 | 98 ± 10 | 95 ± 12 | 100 ± 11 | 82 ± 14 | 97 ± 9 | – | – | – | –
COc1ccc(COc2cccc(NC(=O)Nc3ccc(OC)cc3)c2)cc1 [Compound 11] | > 100 | less confluent cultures with a few elongated fibroblast-like appearance cells | 95 ± 21 | 86 ± 4 | 119 ± 14 | 88 ± 3 | 85 ± 11 | 103 ± 7 | 105 ± 4 | 94 ± 9 | 66 ± 24 | 102 ± 5 | 109 | 20 | 20 | active
COc1ccc(COc2cccc(NC(=O)Oc3ccccc3)c2)cc1 [Compound 14] | > 100 | slight loss of cell-to-cell contact and the appearance of clustered cells with irregular surfaces | 82 ± 4 | 90 ± 6 | 97 ± 5 | 88 ± 9 | 85 ± 14 | 127 ± 12 | 93 ± 9 | 97 ± 9 | 81 ± 6 | 109 ± 2 | 102 | – | – | –
